Laboratory results as given in ChEMBL document CHEMBL1123552 (J Med Chem, 1987).
Values after ≈ are worked out from the molar mass of the structure shown. Values joined by “and” are separate entries in the source; they are usually repeats but may differ in a detail not shown here. Equal entries are not always repeated.

Tests used:
Plasmodium falciparum [1] = assay: In vitro antimalarial activity against Plasmodium falciparum W-2 (Indochina); type: functional, organism-based
Plasmodium falciparum [2] = assay: In vitro antimalarial activity against Plasmodium falciparum D6 Sierra Leone; type: functional, organism-based
Mus musculus [3] = assay: Antimalarial activity against Plasmodium berghei in mice (Mus musculus) expressed as number of cures was determined at a dose of 40 mg/kg; type: functional
Mus musculus [4] = assay: Antimalarial activity against Plasmodium berghei in mice (Mus musculus) expressed as number of cures was determined at a dose of 160 mg/kg; type: functional
Mus musculus [5] = assay: Antimalarial activity against Plasmodium berghei in mice (Mus musculus) expressed as number of cures was determined at a dose of 640 mg/kg; type: functional

In the case of `C[C@H]1[C@@H](OCCCC(=O)O)O[C@@H]2O[C@]3(C)CC[C@H]4[C@H](C)CC[C@@H]1[C@@]24OO3`, the IC50 (Plasmodium falciparum [1]) is reported as 8.04 ng/mL (≈ 21.7 nM) and the IC50 (Plasmodium falciparum [2]) is reported as 17.9 ng/mL (≈ 48.3 nM).

In the case of `C[C@H]1[C@@H](OCc2ccc(C(=O)O)cc2)O[C@@H]2OC3(C)CC[C@H]4[C@H](C)CC[C@@H]1[C@@]24OO3` (single isomer, unassigned), the IC50 (Plasmodium falciparum [1]) is reported as 0.92 ng/mL (≈ 2.2 nM) and the IC50 (Plasmodium falciparum [2]) is reported as 1.74 ng/mL (≈ 4.16 nM).

`COC(=O)CCCO[C@H]1O[C@@H]2OC3(C)CC[C@H]4[C@H](C)CC[C@@H]([C@H]1C)[C@@]24OO3` (single isomer, unassigned) gave an IC50 (Plasmodium falciparum [1]) of 0.95 ng/mL (≈ 2.47 nM) and an IC50 (Plasmodium falciparum [2]) of 3.06 ng/mL (≈ 7.96 nM).

`COC(=O)c1ccc(CO[C@H]2O[C@@H]3OC4(C)CC[C@H]5[C@H](C)CC[C@@H]([C@H]2C)[C@@]35OO4)cc1` (single isomer, unassigned) showed an IC50 (Plasmodium falciparum [1]) of 0.37 ng/mL (≈ 0.855 nM) and an IC50 (Plasmodium falciparum [2]) of 0.77 ng/mL (≈ 1.78 nM).

In the case of `COC(=O)CCO[C@H]1O[C@@H]2OC3(C)CC[C@H]4[C@H](C)CC[C@@H]([C@H]1C)[C@@]24OO3` (single isomer, unassigned), the IC50 (Plasmodium falciparum [1]) is reported as 0.64 ng/mL (≈ 1.73 nM) and the IC50 (Plasmodium falciparum [2]) is reported as 1.84 ng/mL (≈ 4.97 nM).

Work on `C[C@H]1[C@@H](OCC(=O)O)O[C@@H]2OC3(C)CC[C@H]4[C@H](C)CC[C@@H]1[C@@]24OO3` (single isomer, unassigned) yielded an IC50 (Plasmodium falciparum [1]) of 26.2 ng/mL (≈ 76.6 nM) and an IC50 (Plasmodium falciparum [2]) of 53.8 ng/mL (≈ 157 nM).

Compound `C[C@H]1[C@@H](OCCCC(=O)O)O[C@@H]2OC3(C)CC[C@H]4[C@H](C)CC[C@@H]1[C@@]24OO3` (single isomer, unassigned) has an IC50 (Plasmodium falciparum [1]) of 10.5 ng/mL (≈ 28.4 nM) and an IC50 (Plasmodium falciparum [2]) of 75.5 ng/mL (≈ 204 nM).

Work on `CCOC(=O)CO[C@H]1O[C@@H]2OC3(C)CC[C@H]4[C@H](C)CC[C@@H]([C@H]1C)[C@@]24OO3` (single isomer, unassigned) yielded an IC50 (Plasmodium falciparum [1]) of 0.26 ng/mL (≈ 0.702 nM) and an IC50 (Plasmodium falciparum [2]) of 0.6 ng/mL (≈ 1.62 nM).

Work on `C[C@H]1[C@@H](OCCC(=O)O)O[C@@H]2OC3(C)CC[C@H]4[C@H](C)CC[C@@H]1[C@@]24OO3` (single isomer, unassigned; 7b) yielded an IC50 (Plasmodium falciparum [1]) of 23.3 ng/mL (≈ 65.3 nM) and an IC50 (Plasmodium falciparum [2]) of 85 ng/mL (≈ 239 nM).

For `C[C@H]1[C@@H](OCCC(=O)O)O[C@@H]2OC3(C)CC[C@H]4[C@H](C)CC[C@@H]1[C@@]24OO3` (single isomer, unassigned; 8b), the IC50 (Plasmodium falciparum [1]) was 35.6 ng/mL (≈ 100 nM) and the IC50 (Plasmodium falciparum [2]) was 51.7 ng/mL (≈ 145 nM).

Work on `C[C@@H]1[C@H](OCc2ccc(C(=O)O)cc2)O[C@@H]2O[C@@]3(C)CC[C@@H]4[C@@H](C)CC[C@@H]1[C@]24OO3` [ARTELINIC ACID] yielded a No. of cures (Mus musculus [3]) of 5, a No. of cures (Mus musculus [4]) of 5 and an IC50 (Plasmodium falciparum [1]) of 1.38 ng/mL (≈ 3.3 nM). The IC50 (Plasmodium falciparum [2]) was 4.07 ng/mL (≈ 9.73 nM) and the No. of cures (Mus musculus [5]) was 5.

`C[C@@H]1CC[C@H]2[C@@H](C)C(=O)O[C@@H]3O[C@@]4(C)CC[C@@H]1[C@]32OO4` [ARTEMISININ] was tested, and the No. of cures (Mus musculus [3]; 40 mg/kg) was 3 and 2, the No. of cures (Mus musculus [4]) was 5 and the IC50 (Plasmodium falciparum [1]) was 0.66 ng/mL (≈ 2.34 nM). The IC50 (Plasmodium falciparum [2]) was 2.93 ng/mL (≈ 10.4 nM) and the No. of cures (Mus musculus [5]) was 5.

With `C[C@H]1[C@H](OC(=O)CCC(=O)[O-])O[C@@H]2O[C@@]3(C)CC[C@H]4[C@H](C)CC[C@@H]1[C@@]24OO3.[Na+]` [SODIUM ARESUNATE] the No. of cures (Mus musculus [5]) was 5.
